From patent US8906852B2 (MethylGene Inc., priority 2010, dated 2014)

Molecular target: T1, VEGFR/KDR (Homo sapiens, UniProt P35968)
T1 construct: made in house; host or cells: Sf9 cells (Spodoptera frugiperda), baculovirus
Assay: VEGFR/KDR kinase inhibition, DELFIA assay
Assay type: biochemical
Details: ATP 0.6 uM (2x Km), enzyme 5 nM
How it was run: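 DELFIA time-resolved fluorescence readout using Europium-tagged anti-phosphotyrosine antibody after EDTA stop. Kinase reaction on plate-bound poly(Glu4,Tyr) ran 10-30 min at 30° C with 5 nM enzyme and 0.6 uM ATP (2× Km), following 4 min on-ice pre-incubation with compound; IC50 over a concentration range.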

T1 sequence (P35968 806-1356): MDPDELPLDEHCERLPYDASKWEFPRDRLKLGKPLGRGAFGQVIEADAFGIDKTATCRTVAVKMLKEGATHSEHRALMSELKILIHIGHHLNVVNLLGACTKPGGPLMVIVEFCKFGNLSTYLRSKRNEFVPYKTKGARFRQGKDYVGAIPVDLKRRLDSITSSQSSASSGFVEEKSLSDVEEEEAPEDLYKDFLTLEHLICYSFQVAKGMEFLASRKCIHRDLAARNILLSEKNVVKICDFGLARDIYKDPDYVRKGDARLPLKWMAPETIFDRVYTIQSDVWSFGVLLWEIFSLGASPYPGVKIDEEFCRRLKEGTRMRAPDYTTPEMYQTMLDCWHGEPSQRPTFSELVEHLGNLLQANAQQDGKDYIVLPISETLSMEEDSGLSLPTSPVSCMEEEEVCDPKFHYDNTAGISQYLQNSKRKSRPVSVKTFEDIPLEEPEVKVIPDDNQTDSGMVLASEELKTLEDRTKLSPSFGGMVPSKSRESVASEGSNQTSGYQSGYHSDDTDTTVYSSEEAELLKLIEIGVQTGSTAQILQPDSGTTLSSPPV

`CCNC(=O)NC1CN(Cc2ccc(-c3cc4nccc(Oc5ccc(NC(=O)NC6CC6)cc5F)c4s3)nc2)C1` [Compound 408] and `O=C(O)CNC(=O)NC1CN(Cc2ccc(-c3cc4nccc(Oc5ccc(NC(=O)NC6CC6)cc5F)c4s3)nc2)C1` [Compound 428] cannot be ordered by IC50: < 0.05 µM for the first, < 0.05 µM for the second.

`CCNC(=O)N1CC(OCc2ccc(-c3cc4nccc(Oc5ccc(NC(=O)NC6CC6)cc5F)c4s3)nc2)C1` [Compound 409] and `CCNC(=O)N1CC(N(CC(=O)O)Cc2ccc(-c3cc4nccc(Oc5ccc(NC(=O)NC6CC6)cc5F)c4s3)nc2)C1` [Compound 434, 2-(((6-(7-(4-(3-Cyclopropylureido)-2-fluorophenoxy)thieno[3,2-b]pyridin-2-yl)pyridin-3-yl)methyl)(1-(ethylcarbamoyl)azetidin-3-yl)-amino)acetic acid] cannot be ordered by IC50: < 0.05 µM for the first, < 0.05 µM for the second.

`CNC(=O)N(C)C1CCN(Cc2ccc(-c3cc4nccc(Oc5ccc(NC(=O)NC6CC6)cc5F)c4s3)nc2)CC1` [Compound 410] and `C=CC(=O)N(C)C1CCN(Cc2ccc(-c3cc4nccc(Oc5ccc(NC(=O)NC6CC6)cc5F)c4s3)nc2)CC1` [Compound 412] cannot be ordered by IC50: < 0.05 µM for the first, < 0.05 µM for the second.

`CC(=O)OCC(=O)N(C)C1CCN(Cc2ccc(-c3cc4nccc(Oc5ccc(NC(=O)NC6CC6)cc5F)c4s3)nc2)CC1` [Compound 411] and `CN(C(=O)CO)C1CCN(Cc2ccc(-c3cc4nccc(Oc5ccc(NC(=O)NC6CC6)cc5F)c4s3)nc2)CC1` [Compound 413] cannot be ordered by IC50: < 0.05 µM for the first, < 0.05 µM for the second.

`O=C(CO)NC1CN(Cc2ccc(-c3cc4nccc(Oc5ccc(NC(=O)NC6CC6)cc5F)c4s3)nc2)C1` [Compound 414] and `O=C(O)CNC(=O)NC1CCN(Cc2ccc(-c3cc4nccc(Oc5ccc(NC(=O)NC6CC6)cc5F)c4s3)nc2)CC1` [Compound 426, 2-(3-(1-((6-(7-(4-(3-Cyclopropylureido)-2-fluorophenoxy)thieno[3,2-b]pyridin-2-yl)pyridin-3-yl)methyl)piperidin-4-yl)ureido)acetic acid] cannot be ordered by IC50: < 0.05 µM for the first, < 0.05 µM for the second.

`COCCN(C)C1CCN(Cc2ccc(-c3cc4nccc(Oc5ccc(NC(=O)NC6CC6)cc5F)c4s3)nc2)CC1` [Compound 416] and `CN(CCO)C1CCN(Cc2ccc(-c3cc4nccc(Oc5ccc(NC(=O)NC6CC6)cc5F)c4s3)nc2)CC1` [Compound 417] cannot be ordered by IC50: < 0.05 µM for the first, < 0.05 µM for the second.

`COCCOCCOCCOCCN(C)C1CCN(Cc2ccc(-c3cc4nccc(Oc5ccc(NC(=O)NC6CC6)cc5F)c4s3)nc2)CC1` [Compound 418] and `CN(CCF)C1CCN(Cc2ccc(-c3cc4nccc(Oc5ccc(NC(=O)NC6CC6)cc5F)c4s3)nc2)CC1` [Compound 421, 1-Cyclopropyl-3-(3-fluoro-4-(2-(5-((4-((2-fluoroethyl)(methyl)amino)piperidin-1-yl)methyl)pyridin-2-yl)thieno[3,2-b]pyridin-7-yloxy)phenyl)urea] cannot be ordered by IC50: < 0.05 µM for the first, < 0.05 µM for the second.

`O=C(Nc1ccc(Oc2ccnc3cc(-c4ccc(CN5CCN(CCF)CC5)cn4)sc23)c(F)c1)NC1CC1` [Compound 420, 1-Cyclopropyl-3-(3-fluoro-4-(2-(5-((4-(2-fluoroethyl)piperazin-1-yl)methyl)pyridin-2-yl)thieno[3,2-b]pyridin-7-yloxy)phenyl)urea] and `CN(CC(=O)O)C1CCN(Cc2ccc(-c3cc4nccc(Oc5ccc(NC(=O)NC6CC6)cc5F)c4s3)nc2)CC1` [Compound 423, 2-((1-((6-(7-(4-(3-Cyclopropylureido)-2-fluorophenoxy)thieno[3,2-b]pyridin-2-yl)pyridin-3-yl)methyl)piperidin-4-yl)(methyl)amino)acetic acid] cannot be ordered by IC50: < 0.05 µM for the first, < 0.05 µM for the second.

`CCOC(=O)CN(C)C1CCN(Cc2ccc(-c3cc4nccc(Oc5ccc(NC(=O)NC6CC6)cc5F)c4s3)nc2)CC1` [Compound 422, Ethyl 2-((1-((6-(7-(4-(3-cyclopropylureido)-2-fluorophenoxy)thieno[3,2-b]pyridin-2-yl)pyridin-3-yl)methyl)piperidin-4-yl)(methyl)amino)acetate] and `CN(CCC(=O)O)C1CCN(Cc2ccc(-c3cc4nccc(Oc5ccc(NC(=O)NC6CC6)cc5F)c4s3)nc2)CC1` [Compound 424, 3-((1-((6-(7-(4-(3-Cyclopropylureido)-2-fluorophenoxy)thieno[3,2-b]pyridin-2-yl)pyridin-3-yl)methyl)piperidin-4-yl)(methyl)amino)propanoic acid] cannot be ordered by IC50: < 0.05 µM for the first, < 0.05 µM for the second.

First: CN(C(=O)NCC(=O)O)C1CCN(Cc2ccc(-c3cc4nccc(Oc5ccc(NC(=O)NC6CC6)cc5F)c4s3)nc2)CC1 [Compound 427]
Second: O=C(O)CCNC(=O)NC1CCN(Cc2ccc(-c3cc4nccc(Oc5ccc(NC(=O)NC6CC6)cc5F)c4s3)nc2)CC1 [Compound 429]
The IC50 of the first is lower: < 0.05 µM for the first, ≥ 0.25 µM for the second.

First: CN1CCN(CCNC(=O)c2cc3nccc(Oc4ccc(NC(=O)NC5CC5)cc4F)c3s2)CC1 [Compound 440]
Second: CNC(=O)c1cc2nccc(Oc3ccc(NC(=O)NC4CC4)cc3F)c2s1 [Compound 444]
The IC50 of the first is higher: ≥ 0.25 µM for the first, < 0.05 µM for the second.

`CN(C)[C@H]1CCN(C(=O)c2cc3nccc(Oc4ccc(NC(=O)NC5CC5)cc4F)c3s2)C1` [Compound 441] and `O=C(Nc1ccc(Oc2ccnc3cc(C(=O)N4CCC4)sc23)c(F)c1)NC1CC1` [Compound 446] cannot be ordered by IC50: < 0.05 µM for the first, < 0.05 µM for the second.

`CN(C)C(=O)c1cc2nccc(Oc3ccc(NC(=O)NC4CC4)cc3F)c2s1` [Compound 442] and `O=C(Nc1ccc(Oc2ccnc3cc(C(=O)N4CCCC4)sc23)c(F)c1)NC1CC1` [Compound 445] cannot be ordered by IC50: < 0.05 µM for the first, < 0.05 µM for the second.

`CC(C)(C)C(=O)O[C@@H]1CCN(C(=O)c2cc3nccc(Oc4ccc(NC(=O)NC5CC5)cc4F)c3s2)C1` [Compound 443] and `CC(C)(C)C(=O)O[C@H]1CCN(C(=O)c2cc3nccc(Oc4ccc(NC(=O)NC5CC5)cc4F)c3s2)C1` [Compound 448] cannot be ordered by IC50: ≥ 0.25 µM for the first, 0.1 to 0.25 µM for the second.

`O=C(Nc1ccc(Oc2ccnc3cc(C(=O)N4CCCCC4)sc23)c(F)c1)NC1CC1` [Compound 447] and `O=C(Nc1ccc(Oc2ccnc3cc(C(=O)N4CCOCC4)sc23)c(F)c1)NC1CC1` [Compound 450] cannot be ordered by IC50: < 0.05 µM for the first, < 0.05 µM for the second.

First: COC(=O)[C@@H]1CCCN1C(=O)c1cc2nccc(Oc3ccc(NC(=O)NC4CC4)cc3F)c2s1 [Compound 449]
Second: CCOC(=O)C1CCCN(C(=O)c2cc3nccc(Oc4ccc(NC(=O)NC5CC5)cc4F)c3s2)C1 (stereo not drawn) [Compound 458]
The IC50 of the first is lower: < 0.05 µM for the first, 0.05 to 0.1 µM for the second.

First: CC(C)(C)C(=O)O[C@@H]1CCCN(C(=O)c2cc3nccc(Oc4ccc(NC(=O)NC5CC5)cc4F)c3s2)C1 [Compound 451]
Second: CC(C)(C)C(=O)OC1CN(C(=O)c2cc3nccc(Oc4ccc(NC(=O)NC5CC5)cc4F)c3s2)C1 [Compound 454]
The IC50 of the first is higher: ≥ 0.25 µM for the first, < 0.05 µM for the second. The second is the more potent here.

`CC(=O)N[C@H]1CCN(C(=O)c2cc3nccc(Oc4ccc(NC(=O)NC5CC5)cc4F)c3s2)C1` [Compound 452] and `CC(=O)N[C@@H]1CCN(C(=O)c2cc3nccc(Oc4ccc(NC(=O)NC5CC5)cc4F)c3s2)C1` [Compound 453] cannot be ordered by IC50: < 0.05 µM for the first, < 0.05 µM for the second.

First: CC(C)(C)C(=O)OC1CCN(C(=O)c2cc3nccc(Oc4ccc(NC(=O)NC5CC5)cc4F)c3s2)CC1 [Compound 455]
Second: CCOC(=O)C1CCN(C(=O)c2cc3nccc(Oc4ccc(NC(=O)NC5CC5)cc4F)c3s2)CC1 [Compound 457]
The IC50 of the first is higher: 0.1 to 0.25 µM for the first, 0.05 to 0.1 µM for the second. The second is the more potent here.

In the case of `CCN(C(=O)OC(C)(C)C)[C@H]1CCN(C(=O)c2cc3nccc(Oc4ccc(NC(=O)NC5CC5)cc4F)c3s2)C1` [Compound 456], the IC50 is reported as < 0.05 µM.
